# In paper PMC12098659 (Scientific Reports, 2025):
# Molecular target: T1, α-glucosidase (Saccharomyces cerevisiae, UniProt P53341)
# Assay: α-Glucosidase inhibition assay
# Format: biochemical
# Conditions: not given
# T1 sequence (P53341 whole entry): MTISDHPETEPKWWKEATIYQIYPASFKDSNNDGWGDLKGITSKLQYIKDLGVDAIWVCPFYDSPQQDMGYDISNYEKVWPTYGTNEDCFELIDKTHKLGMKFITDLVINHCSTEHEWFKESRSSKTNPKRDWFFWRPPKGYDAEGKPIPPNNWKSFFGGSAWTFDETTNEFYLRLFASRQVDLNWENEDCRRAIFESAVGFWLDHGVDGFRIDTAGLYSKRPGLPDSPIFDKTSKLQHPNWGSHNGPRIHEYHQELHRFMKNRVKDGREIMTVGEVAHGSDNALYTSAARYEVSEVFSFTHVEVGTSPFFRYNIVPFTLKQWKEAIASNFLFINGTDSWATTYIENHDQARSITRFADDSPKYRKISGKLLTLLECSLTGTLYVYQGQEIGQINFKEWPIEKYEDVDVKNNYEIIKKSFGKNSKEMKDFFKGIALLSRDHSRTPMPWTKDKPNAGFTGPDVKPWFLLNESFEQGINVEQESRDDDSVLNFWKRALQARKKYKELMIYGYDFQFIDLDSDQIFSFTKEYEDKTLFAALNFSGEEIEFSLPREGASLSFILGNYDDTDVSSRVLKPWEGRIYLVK
row,IC50,Compound
1,38.18 ± 0.14 µM,"N#Cc1c(-c2ccc(Cl)cc2)c(N)c(-c2ccccc2)n2nc(-c3ccccc3)nc12 [Compound 15q, 6-Amino-7-(4-chlorophenyl)-2,5-diphenyl-^1,2,4triazolo[1,5-a]pyridine-8-carbonitrile]"
2,21.49 ± 0.09 µM,"Cc1ccc(-c2c(N)c(-c3cccs3)n3nc(-c4ccccc4)nc3c2C#N)cc1 [Compound 15l, 6-Amino-2-phenyl-5-(thiophen-2-yl)-7-(p-tolyl)-^1,2,4triazolo[1,5-a]pyridine-8-carbonitrile]"
3,49.96 ± 0.11 µM,"COc1ccc(-c2c(N)c(-c3ccc(Cl)cc3)c(C#N)c3nc(-c4ccccc4)nn23)cc1 [Compound 15r, 6-Amino-7-(4-chlorophenyl)-5-(4-methoxyphenyl)-2-phenyl-^1,2,4triazolo[1,5-a]pyridine-8-carbonitrile]"
4,20.32 ± 0.11 µM,"N#Cc1c(-c2ccccc2)c(N)c(-c2ccccc2)n2nc(-c3ccccc3)nc12 [Compound 15a, 6-Amino-2,5,7-triphenyl-^1,2,4triazolo[1,5-a]pyridine-8-carbonitrile]"
5,14.8 ± 0.22 µM,"COc1ccc(-c2nc3c(C#N)c(-c4ccccc4)c(N)c(-c4ccccc4)n3n2)cc1 [Compound 15u, 6-Amino-2-(4-methoxyphenyl)-5,7-diphenyl-^1,2,4triazolo[1,5-a]pyridine-8-carbonitrile]"
6,9.18 ± 0.12 µM,"COc1ccc(-c2c(N)c(-c3ccccc3)n3nc(-c4ccccc4)nc3c2C#N)cc1 [Compound 15m, 6-Amino-7-(4-methoxyphenyl)-2,5-diphenyl-^1,2,4triazolo[1,5-a]pyridine-8-carbonitrile]"
7,14.4 ± 0.43 µM,"Cc1ccc(-c2c(N)c(-c3ccccc3)n3nc(-c4ccccc4)nc3c2C#N)cc1 [Compound 15h, 6-Amino-2,5-diphenyl-7-(p-tolyl)-^1,2,4triazolo[1,5-a]pyridine-8-carbonitrile]"
8,45.54 ± 0.25 µM,"N#Cc1c(-c2ccccc2)c(N)c(-c2cccc(Cl)c2)n2nc(-c3ccccc3)nc12 [Compound 15d, 6-Amino-5-(3-chlorophenyl)-2,7-diphenyl-^1,2,4triazolo[1,5-a]pyridine-8-carbonitrile]"
9,22.31 ± 0.08 µM,"COc1ccc(-c2c(N)c(-c3ccc(OC)cc3)n3nc(-c4ccccc4)nc3c2C#N)cc1 [Compound 15n, 6-Amino-5,7-bis(4-methoxyphenyl)-2-phenyl-^1,2,4triazolo[1,5-a]pyridine-8-carbonitrile]"
10,25.13 ± 0.24 µM,"N#Cc1c(-c2ccccc2)c(N)c(-c2ccccc2)n2nc(-c3ccc(Cl)cc3)nc12 [Compound 15v, 6-Amino-2-(4-chlorophenyl)-5,7-diphenyl-^1,2,4triazolo[1,5-a]pyridine-8-carbonitrile]"
11,25.5 ± 0.23 µM,"COc1ccc(-c2c(N)c(-c3ccccc3)c(C#N)c3nc(-c4ccccc4)nn23)cc1 [Compound 15b, 6-Amino-5-(4-methoxyphenyl)-2,7-diphenyl-^1,2,4triazolo[1,5-a]pyridine-8-carbonitrile]"
12,75.63 ± 0.44 µM,"N#Cc1c(-c2ccc(Cl)cc2)c(N)c(-c2cccs2)n2nc(-c3ccccc3)nc12 [Compound 15t, 6-Amino-7-(4-chlorophenyl)-2-phenyl-5-(thiophen-2-yl)-^1,2,4triazolo[1,5-a]pyridine-8-carbonitrile]"
13,60.64 ± 0.18 µM,"N#Cc1c(-c2ccccc2)c(N)c(-c2ccccc2Cl)n2nc(-c3ccccc3)nc12 [Compound 15e, 6-Amino-5-(2-chlorophenyl)-2,7-diphenyl-^1,2,4triazolo[1,5-a]pyridine-8-carbonitrile]"
14,45.73 ± 0.29 µM,"N#Cc1c(-c2ccccc2)c(N)c(-c2cccs2)n2nc(-c3ccccc3)nc12 [Compound 15g, 6-Amino-2,7-diphenyl-5-(thiophen-2-yl)-^1,2,4triazolo[1,5-a]pyridine-8-carbonitrile]"
15,6.6 ± 0.09 µM,"Cc1ccc(-c2c(N)c(-c3ccc(Cl)cc3)n3nc(-c4ccccc4)nc3c2C#N)cc1 [Compound 15j, 6-Amino-5-(4-chlorophenyl)-2-phenyl-7-(p-tolyl)-^1,2,4triazolo[1,5-a]pyridine-8-carbonitrile]"
16,36.33 ± 0.09 µM,"COc1ccc(-c2c(N)c(-c3cccs3)n3nc(-c4ccccc4)nc3c2C#N)cc1 [Compound 15p, 6-Amino-7-(4-methoxyphenyl)-2-phenyl-5-(thiophen-2-yl)-^1,2,4triazolo[1,5-a]pyridine-8-carbonitrile]"
17,29.89 ± 0.17 µM,"Cc1ccc(-c2c(N)c(-c3ccc(Br)cc3)n3nc(-c4ccccc4)nc3c2C#N)cc1 [Compound 15k, 6-Amino-5-(4-bromophenyl)-2-phenyl-7-(p-tolyl)-^1,2,4triazolo[1,5-a]pyridine-8-carbonitrile]"
18,9.69 ± 0.09 µM,"N#Cc1c(-c2ccccc2)c(N)c(-c2ccc(Cl)cc2)n2nc(-c3ccccc3)nc12 [Compound 15c, 6-Amino-5-(4-chlorophenyl)-2,7-diphenyl-^1,2,4triazolo[1,5-a]pyridine-8-carbonitrile]"
19,31.49 ± 0.08 µM,"N#Cc1c(-c2ccc(Cl)cc2)c(N)c(-c2ccc(Cl)cc2)n2nc(-c3ccccc3)nc12 [Compound 15s, 6-Amino-5,7-bis(4-chlorophenyl)-2-phenyl-^1,2,4triazolo[1,5-a]pyridine-8-carbonitrile]"
20,7.64 ± 0.13 µM,"COc1ccc(-c2c(N)c(-c3ccc(Cl)cc3)n3nc(-c4ccccc4)nc3c2C#N)cc1 [Compound 15o, 6-Amino-5-(4-chlorophenyl)-7-(4-methoxyphenyl)-2-phenyl-^1,2,4triazolo[1,5-a]pyridine-8-carbonitrile]"
21,8.43 ± 0.25 µM,"COc1ccc(-c2c(N)c(-c3ccc(C)cc3)c(C#N)c3nc(-c4ccccc4)nn23)cc1 [Compound 15i, 6-Amino-5-(4-methoxyphenyl)-2-phenyl-7-(p-tolyl)-^1,2,4triazolo[1,5-a]pyridine-8-carbonitrile]"
22,32 ± 0.32 µM,"N#Cc1c(-c2ccccc2)c(N)c(-c2ccc(Br)cc2)n2nc(-c3ccccc3)nc12 [Compound 15f, 6-Amino-5-(4-bromophenyl)-2,7-diphenyl-^1,2,4triazolo[1,5-a]pyridine-8-carbonitrile]"

# Molecular target: T1, α-glucosidase
# Assay: Enzyme kinetic study
# Format: biochemical
# Conditions: not given
row,Ki,Compound
1,6.6 µM,"Cc1ccc(-c2c(N)c(-c3ccc(Cl)cc3)n3nc(-c4ccccc4)nc3c2C#N)cc1 [Compound 15j, 6-Amino-5-(4-chlorophenyl)-2-phenyl-7-(p-tolyl)-^1,2,4triazolo[1,5-a]pyridine-8-carbonitrile]"

# Same assay, conditions: Lineweaver-Burk plot: Km increases, Vmax unchanged
row,α-glucosidase inhibition mode,Compound
1,competitive,"Cc1ccc(-c2c(N)c(-c3ccc(Cl)cc3)n3nc(-c4ccccc4)nc3c2C#N)cc1 [Compound 15j, 6-Amino-5-(4-chlorophenyl)-2-phenyl-7-(p-tolyl)-^1,2,4triazolo[1,5-a]pyridine-8-carbonitrile]"

# Same assay, conditions: enzyme treated with 6.6 µM compound 15j; untreated 62.5
row,Maximum velocity (Vm) of the treated enzyme,Compound
1,62.5 (nmol min^− 1),"Cc1ccc(-c2c(N)c(-c3ccc(Cl)cc3)n3nc(-c4ccccc4)nc3c2C#N)cc1 [Compound 15j, 6-Amino-5-(4-chlorophenyl)-2-phenyl-7-(p-tolyl)-^1,2,4triazolo[1,5-a]pyridine-8-carbonitrile]"

# Test system: α-amylase
# Assay: not given
# Conditions: 100 µM
row,inhibition,Compound
1,50.1 ± 0.5%,C[C@H]1O[C@H](O[C@H]2[C@H](O)[C@@H](O)[C@@H](O[C@H]3[C@H](O)[C@@H](O)C(O)O[C@@H]3CO)O[C@@H]2CO)[C@H](O)[C@@H](O)[C@@H]1N[C@H]1C=C(CO)[C@@H](O)[C@H](O)[C@H]1O (some centres unmarked) [Acarbose]
